The values below come from ChEMBL document CHEMBL3400083, “Effect of the tyrosinase inhibitor (S)-N-trans-feruloyloctopamine from garlic skin on tyrosinase gene expression and melanine accumulation in melanoma cells” (Bioorg Med Chem Lett, 2015).

Data set [1] is described as follows: Cytotoxicity against mouse B16F10 cells assessed as cell viability at 1.5 uM after 72 hrs by MTT assay (reference value: 99.6 +/- 3.5%). Format: cell-based, B16-F10. Conditions: read-out: Activity.
A short description of data set [2]: Cytotoxicity against mouse B16F10 cells assessed as cell viability at 3 uM after 72 hrs by MTT assay (reference value: 99.6 +/- 3.5%). Format: cell-based, B16-F10. Conditions: read-out: Activity.
Data set [3] can be described thus: Cytotoxicity against mouse B16F10 cells assessed as cell viability at 6 uM after 72 hrs by MTT assay (reference value: 99.6 +/- 3.5%). It is filed as cell-based, B16-F10. Conditions: read-out: Activity.
Data set [4] can be described thus: Cytotoxicity against mouse B16F10 cells assessed as cell viability at 12 uM after 72 hrs by MTT assay (reference value: 99.6 +/- 3.5%). Format: cell-based, B16-F10. The following applies: read-out: Activity.
The nature of data set [5]: Cytotoxicity against mouse B16F10 cells assessed as cell viability at 24 uM after 72 hrs by MTT assay (reference value: 99.6 +/- 3.5%). It is filed as cell-based, B16-F10. Conditions: read-out: Activity.
Data set [6] is described as follows: Cytotoxicity against mouse B16F10 cells assessed as cell viability at 48 uM after 72 hrs by MTT assay (reference value: 99.6 +/- 3.5%). Format: cell-based, B16-F10. The following applies: read-out: Activity.
A short description of data set [7]: Cytotoxicity against mouse B16F10 cells assessed as cell viability at 96 uM after 72 hrs by MTT assay (reference value: 99.6 +/- 3.5%). Format: cell-based, B16-F10. Conditions: read-out: Activity.
The target of data set [8] is T1, Tyrosinase (Mus musculus) (UniProt P11344).
T1 sequence (whole entry): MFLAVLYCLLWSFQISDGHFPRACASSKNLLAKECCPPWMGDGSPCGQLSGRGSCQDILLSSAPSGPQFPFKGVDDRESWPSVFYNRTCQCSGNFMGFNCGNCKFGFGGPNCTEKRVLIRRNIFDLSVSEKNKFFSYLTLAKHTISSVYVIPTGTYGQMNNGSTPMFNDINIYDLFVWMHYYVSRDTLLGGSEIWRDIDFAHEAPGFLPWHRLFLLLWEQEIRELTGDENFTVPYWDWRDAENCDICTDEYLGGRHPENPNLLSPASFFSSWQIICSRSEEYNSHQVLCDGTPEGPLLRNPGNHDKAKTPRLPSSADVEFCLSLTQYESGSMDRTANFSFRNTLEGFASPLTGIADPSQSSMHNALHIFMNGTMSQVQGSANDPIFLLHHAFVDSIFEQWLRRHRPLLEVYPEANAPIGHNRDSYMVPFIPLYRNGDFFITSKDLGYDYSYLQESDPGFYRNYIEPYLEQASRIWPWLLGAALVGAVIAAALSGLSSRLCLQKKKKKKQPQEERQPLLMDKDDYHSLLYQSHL
Description: Inhibition of tyrosinase in mouse B16F10 cells assessed as reduction in alpha-MSH-induced melanin content at 48 uM (reference value: 98.5 +/- 4.7%). Format: cell-based. Conditions: B16-F10.

The target of data set [9] is T1, Tyrosinase (Mus musculus). Kind of data set: Inhibition of tyrosinase in mouse B16F10 cells assessed as reduction in alpha-MSH-induced melanin content at 96 uM (reference value: 98.5 +/- 4.7%). It is filed as cell-based. The following applies: B16-F10.
The target in data set [10] is T1, Tyrosinase (Mus musculus). Description: (§1) Inhibition of tyrosinase in mouse B16F10 cells assessed as reduction in alpha-MSH-induced melanin content. It is filed as cell-based. Conditions: B16-F10.
Data set [11] deals with T2, Tyrosinase (Mus musculus, UniProt P11344).
T2 sequence (P11344 whole entry): T1 sequence (whole entry)
The data set is described as §1. It is filed as cell-based, B16-F10.

A further data set deals with B16-F10. Description: Inhibition of tyrosinase mRNA expression in alpha-MSH-stimulated mouse B16F10 cells at 48 to 96 uM incubated for 1 hr prior to alpha-MSH challenge measured after 24 hrs by RT-PCR analysis. Format: functional, cell-based.
Data set [12] can be described thus: Inhibition of tyrosinase protein expression in alpha-MSH-stimulated mouse B16F10 cells at 48 to 96 uM incubated for 1 hr prior to alpha-MSH challenge measured after 24 hrs by Western blotting analysis. The following applies: B16-F10. Format: functional, cell-based.
Data set [13] concerns the target T3, Tyrosinase (Homo sapiens, UniProt P14679).
T3 sequence (P14679 whole entry): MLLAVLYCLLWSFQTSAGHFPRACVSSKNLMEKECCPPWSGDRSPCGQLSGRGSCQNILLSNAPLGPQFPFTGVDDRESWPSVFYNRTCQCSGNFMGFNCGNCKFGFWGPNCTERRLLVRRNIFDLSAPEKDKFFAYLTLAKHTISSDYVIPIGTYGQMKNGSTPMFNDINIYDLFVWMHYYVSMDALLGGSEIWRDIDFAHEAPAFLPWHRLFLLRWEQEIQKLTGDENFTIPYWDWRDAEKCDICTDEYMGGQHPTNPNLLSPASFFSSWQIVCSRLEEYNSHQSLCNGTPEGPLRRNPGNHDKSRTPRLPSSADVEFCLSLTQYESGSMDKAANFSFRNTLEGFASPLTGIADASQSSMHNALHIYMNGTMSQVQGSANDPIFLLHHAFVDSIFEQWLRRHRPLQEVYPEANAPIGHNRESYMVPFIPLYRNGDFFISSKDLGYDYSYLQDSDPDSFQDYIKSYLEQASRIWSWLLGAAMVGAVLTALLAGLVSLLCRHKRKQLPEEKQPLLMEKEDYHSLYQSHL
Kind of data set: Inhibition of tyrosinase (unknown origin).

Data set [14] addresses T1, Tyrosinase (Mus musculus). The following applies: B16-F10, 100 uM.
Description: Inhibition of tyrosinase in mouse B16F10 cells assessed as reduction in alpha-MSH-induced melanin content at 100 uM

Calls of active or inactive are those of the source. The calls are words filed in the database; no cut-off is given here.

As to `COc1cc(/C=C/C(=O)NC[C@@H](O)c2ccc(O)cc2)ccc1O`, the viability at 72 h, 1.5 µM in data set [1] was 102%. Further, in [2], the viability at 72 h, 3 µM turned out to be 105%. In [3], the viability at 72 h, 6 µM amounted to 97.8%. The viability at 72 h, 12 µM in [4] is 99.4%. For the same molecule, the viability at 72 h, 24 µM in [5] came out at 98.3%. In addition, the viability at 72 h, 48 µM in data set [6] was 97.2%. For the same molecule, the viability at 72 h, 96 µM in [7] came out at 96%. For the same molecule, the inhibition in data set [8] was 122%; in [9], 106%; in data set [10], “Dose-dependent effect”. The IC50 at Tyrosinase [11] was > 96 µM. Moreover, the inhibition entry (in the data set with B16-F10; in [12]) was “Active” in each case.

The molecule `CC(C)(C)c1cc(O)ccc1O` [E319] came in with an IC50 against Tyrosinase [13] of 54.2 µM.

`OC[C@H]1O[C@@H](Oc2ccc(O)cc2)[C@H](O)[C@@H](O)[C@@H]1O`: in data set [14], the inhibition is 146%.
